One sequence from US20170320939A1, “COLL2-1 PEPTIDE AND ITS NITRATED FORM AS THERAPEUTIC TARGETS FOR OSTEOARTHRITIS TREATMENT” (Université de Liège, priority 2014, published 2017) can be followed below.

Assay [1] relates to OA synovial fibroblast cells. In words: Intracellular GSH assay in OA synovial fibroblast cells. The note with it: Coll2-1 at 0.45 and 4.5 nmol, 24 hours. Format: cell-based, human. The protocol: 1.1 Patients. Synovial tissue samples were obtained from 10 patients (8 women, 2 man; mean age 70 +/−6 years) with osteoarthritis (OA) of the knee at the time of total knee joint replacement surgery. All the subjects provided their informed consent.
1.2 Isolation and culture of synovial cells. Synovium biopsies were digested is with collagenase from Clostridium histolyticum, Type IA (1 mg/ml) (Sigma-Aldrich, Saint-Louis, USA) and 0.25% trypsin (Sigma Aldrich, Saint Louis, USA) with 0.68 mM EDTA in Tris buffer 0.1M, pH 7.4 in complete medium (CM) (DMEM (Dulbecco's Modified Eagle's Medium) Low Glucose supplemented with 10 mM HEPES, 100 U/ml penicillin, 100 μg/ml streptomycin, 2 mM glutamine and 10% fetal calf serum (Lonza, Verviers, Belgium)) for 1 hour at 37° C. The cells suspensions were passed through a 70-μm filter to remove any undigested tissue. The filtered cells suspensions were then collected by centrifugation at 800 g and were cultured in culture flasks. After 24 hours, medium was changed to eliminate non adherent cells. Synovial fibroblasts cells (SFC) were used after three passages. […]
1.6 GSH assay. Levels of intracellular GSH were assessed by monoclorobimane staining. […] The fluorescence intensities were measured at […] using excitation and emission wavelengths of 380 and 485 nm, respectively. The intracellular GSH level was expressed as arbitrary units of fluorescence intensity.

In assay [2] the test system is TSP1. Put plainly: TSP1 mRNA expression by Real Time PCR in OA synovial fibroblast cells. Format: cell-based, human. Particulars: increasing concentrations: Coll2-1 (0.45 and 4.5 nmol) or Coll2-1NO2 (4 and 40 pmol), 24 hours. The protocol: (§1) 1.3 Treatment of synovial fibroblast cells. Cells were seeded into a six-well plate at the density of 2×10^5 cells/well in 2 ml of CM. When the cells reached confluence, the CM was replaced with 1% serum medium for 24 h to keep the cells quiescent. Cells were incubated for 24 hours with or without peptides Coll2-1 (^108HRGYPGLDG^116; 0.45 and 4.5 nmol) or Coll2-1NO2 (^108HRGYPGLDG-NO2^116; 4 and 40 pmol) at a range of concentrations found in the blood of osteoarthritic patients.
1.4 RNA extraction and Real Time Reverse Transcriptase-Polymerase Chain Reaction (RT PCR). Total RNA were extracted using the RNeasy Mini Kit (Qiagen, Netherlands) and were reverse transcribed with SuperScript III Reverse Transcriptase (Invitrogen, Belgium) according to the manufacturer's instructions. The cDNAs were quantified by real-time quantitative PCR using the Rotor Gene instrument (Qiagen, Venlo, Netherlands) and the SYBR Premix Ex Taq kit (Takara, Verviers, Belgium). The level of gene expression was determined by interpolation with a standard curve. To standardize mRNA levels, HPRT, a house keeping gene, was amplified as an internal control. The oligonucleotide primers sequences were as follow: HPRT forward, 5′-[…]-3′ (SEQ ID NO: 2); HPRT reverse, 5′-TGCCTGACCAAGGAAAGC-3′ (SEQ ID NO: 3); TSP-1 forward, 5′-CAGACCGCATTGGAGATAC-3′ (SEQ ID NO: 4); TSP-1 reverse, 5′-[…]-3′ (SEQ ID NO: 5); VEGF forward, 5′-TGCCTTGCTGCTCTAC-3′ (SEQ ID NO: 6); VEGF reverse, 5′-CACACAGGATGGCTTGAA-3′ (SEQ ID NO: 7); IL-6 forward, 5′-AAACAAATTCGGTACATCCTCG-3′ (SEQ ID NO: 8); IL-6 reverse, 5′-CCA GGC AAG TCT CCT CAT-3′ (SEQ ID NO: 9); IL-8 forward, 5′-GGAACCATCTCACTGTGTGTAA-3′ (SEQ ID NO: 10); IL-8 reverse, 5′-TGGAAAGGTTTGGAGTATGTCT-3′ (SEQ ID NO: 11).

In assay [3] the test system is VEGF. In words: VEGF mRNA expression by Real Time PCR in OA synovial fibroblast cells. The class given is cell-based, human. The note with it: increasing concentrations: Coll2-1 (0.45 and 4.5 nmol) or Coll2-1NO2 (4 and 40 pmol), 24 hours. How it is done: as §1
1.4 RNA extraction and Real Time Reverse Transcriptase-Polymerase Chain Reaction (RT PCR). Total RNA were extracted using the RNeasy Mini Kit (Qiagen, Netherlands) and were reverse transcribed with SuperScript III Reverse Transcriptase (Invitrogen, Belgium) according to the manufacturer's instructions. The cDNAs were quantified by real-time quantitative PCR using the Rotor Gene instrument (Qiagen, Venlo, Netherlands) and the SYBR Premix Ex Taq kit (Takara, Verviers, Belgium). The level of gene expression was determined by interpolation with a standard curve. To standardize mRNA levels, HPRT, a house keeping gene, was amplified as an internal control. […]

In assay [4] the test system is NF-κB. Put plainly: NF-κB activation, Western blotting of phospho-p65 and phospho-IκBα. The class given is cell-based. Particulars: in the presence of Coll2-1. The protocol:
Western blotting. Cells were collected at 4° C. and lysed on ice in 50 μl of buffer (25 mM Hepes, 150 mM NaCl, 0.5% Triton X-100, 10% glycerol, and 1 mM dithiothreitol) containing protease and phosphatase inhibitors. After incubation at 4° C. for 30 minutes, lysates were then centrifugated at 14,000 g for 30 minutes at 4° C. to remove insoluble debris. Protein concentrations were determined using BCA assay. Total protein extracts (10 μg) were fractioned by electrophoresis on a polyacrylamide gel (10%) and transferred onto a PVDF membrane. Membrane were blocked for 1 h in TBS-Tween containing 2% bovine serum albumin (phosphor-NF-κB p65 and phospho-IκBα). Membranes were then incubated overnight at 4° C. with primary antibodies. Anti-rabbit phospho-NF-κB p65 (1:1000 dilution), anti-rabbit phospho-IκBα (1:1000 dilution) were used. Horse-radish peroxidase (HRP)-linked anti-rabbit IgG antibody (1:2000 dilution) was used as secondary antibody.
(Immunoblotting shows a protein as a band on a membrane.)

As for HRGYPGLDG [Coll2-1], in assay [1], the “intracellular level of GSH” value is “significant decrease”. Besides, in assay [2], the TSP1 expression entry is on record as “decrease”. In assay [3], the VEGF expression result is “tended to increase”. In assay [4], the IκBα degradation result was “induced” and the “phosphorylation of p65 NF-κB subunit” value is reported as “observed the phosphorylation”.
